The source of these data is ChEMBL document CHEMBL1201862, “PubChem BioAssay data set” (2004).

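Five concentrations, 48 hours, 96-well plates. GI50 is the concentration that inhibits growth by half.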 The source made the active and inactive calls. Cut-off read from the data, not from the text of the source: active = GI50 up to about 1.1 µM and inactive = higher.

Test systems include A498; A549; DU-145; HCC 2998; HCT-116; HL-60; HOP-92; IGROV-1; KM12; MDA-MB-231; MDA-MB-435; MOLT-4; NCI/ADR-RES; OVCAR-4; OVCAR-5; SF-268; SF-295; SN12C; UO-31; HOP-62.
Common to all, as to test: DTP human tumour cell line panel, 48 h

As usually defined, the GI50 is the concentration giving 50% growth inhibition. For `N#C/C=C(/NC(=O)Nc1ccccc1)N1CCCC1`, the GI50 is > 100 µM (inactive) with A498; > 40.7 µM (inactive) in the assay with A549; > 50.9 µM (inactive) with DU-145; > 30.3 µM (inactive) in the assay with HCC 2998; > 34.8 µM (inactive) in the assay with HCT-116; > 100 µM (inactive) with HL-60. Besides, the GI50 with HOP-92 is > 48 µM (inactive); in the assay with IGROV-1, > 55.8 µM (inactive); with KM12, > 54.8 µM (inactive); in the assay with MDA-MB-231 it was > 55.8 µM (inactive); in the assay on MDA-MB-435, > 68.9 µM (inactive); in the assay on MOLT-4, > 100 µM (inactive). The GI50 with NCI/ADR-RES was > 39.9 µM (inactive); in the assay on OVCAR-4, 34.6 µM (inactive); with OVCAR-5 it was > 65.6 µM (inactive); in the assay with SF-268, > 32.3 µM (inactive); with SF-295, > 31.5 µM (inactive); in the assay on SN12C it was > 86.3 µM (inactive). Besides, the GI50 in the assay with UO-31 was > 89.3 µM (inactive).
Take `COc1cc(NCc2ccc3nc(-c4ccccc4)c(N)nc3c2)cc(OC)c1OC`: the GI50 in the assay on A498 is 23.3 µM (inactive); with A549, 30.8 µM (inactive); in the assay with DU-145, 36.6 µM (inactive); with HCC 2998, 51.8 µM (inactive); in the assay with HCT-116 it was 18.1 µM (inactive); in the assay on HL-60 it was 25.6 µM (inactive). Besides, the GI50 in the assay on HOP-62 is 43.8 µM (inactive); with HOP-92, 12.5 µM (inactive); in the assay with IGROV-1, 43.6 µM (inactive); in the assay on KM12, 26.5 µM (inactive); in the assay on MDA-MB-231, 36 µM (inactive); in the assay with MDA-MB-435 it was 22.3 µM (inactive). Also, the GI50 in the assay with MOLT-4 was 23.3 µM (inactive); in the assay with NCI/ADR-RES it was 22.2 µM (inactive); in the assay on OVCAR-4, 29.3 µM (inactive); with OVCAR-5, > 100 µM (inactive); with SF-268 it was 34.8 µM (inactive); in the assay on SF-295, 35.6 µM (inactive). For the same compound, the GI50 with SN12C is 38.5 µM (inactive); in the assay on UO-31 it was 29.2 µM (inactive).
Consider `CCOC(=O)n1c(=O)nc2c3c(ncn21)Oc1c(c(-c2ccccc2)nn1-c1ccccc1)C3c1ccc(Cl)cc1` (configuration not stated), for which the GI50 with A498 is 1.79 µM (inactive); in the assay on A549, 1.65 µM (inactive); in the assay with DU-145, 1.71 µM (inactive); in the assay on HCC 2998 it was 0.631 µM (active); with HCT-116 it was 1.5 µM (inactive); in the assay with HL-60, 1.26 µM (inactive). Moreover, the GI50 in the assay on HOP-62 was 1.77 µM (inactive); in the assay on HOP-92, 1.36 µM (inactive); in the assay with KM12, 1.56 µM (inactive); with MDA-MB-231 it was 1.4 µM (inactive); with MDA-MB-435, 1.67 µM (inactive); in the assay with NCI/ADR-RES, 1.73 µM (inactive). Besides, the GI50 is 1.15 µM (inactive) in the assay with OVCAR-4; 2.1 µM (inactive) with OVCAR-5; 1.58 µM (inactive) in the assay on SF-268; 1.86 µM (inactive) in the assay with SF-295; 1.82 µM (inactive) in the assay with SN12C; 1.49 µM (inactive) with UO-31.
Consider `O=C(c1ccccc1)c1ccc2[nH]c(-c3c(Cl)c(Cl)c(Cl)c(Cl)c3C(=O)Nc3ccco3)nc2c1`, for which the GI50 in the assay on A498 is 20 µM (inactive); in the assay with A549, 26.5 µM (inactive); with DU-145, 78.9 µM (inactive); in the assay on HCC 2998, 15.4 µM (inactive); with HCT-116 it was 34 µM (inactive); in the assay on HL-60, 24.2 µM (inactive). In addition, the GI50 was 45.3 µM (inactive) with HOP-62; 40.5 µM (inactive) in the assay with HOP-92; 41.1 µM (inactive) with IGROV-1; 33 µM (inactive) in the assay with KM12; 34.4 µM (inactive) with MDA-MB-231; 12.6 µM (inactive) in the assay with MDA-MB-435. Moreover, the GI50 with MOLT-4 is 18.6 µM (inactive); in the assay on NCI/ADR-RES it was 16.4 µM (inactive); with OVCAR-4 it was 42.3 µM (inactive); in the assay on OVCAR-5 it was > 100 µM (inactive); in the assay with SF-268, 27 µM (inactive); with SF-295, 23.6 µM (inactive). Moreover, the values for the GI50 with SN12C and with UO-31 were 48.2 µM (inactive) and 51.5 µM (inactive), respectively.
As to `C/C=C/[C@@H]1O[C@H](CC#C[Si](C)(C)C)[C@@]2(C=O)C(C)=CC[C@H](C(C)C)[C@@H]12`, the GI50 was 29.6 µM (inactive) with A498; 23.1 µM (inactive) with A549; 21.3 µM (inactive) in the assay on DU-145; 18.2 µM (inactive) with HCC 2998; 18.2 µM (inactive) with HCT-116; 3.81 µM (inactive) in the assay with HL-60. In addition, the GI50 was 25.4 µM (inactive) in the assay on HOP-62; 17.4 µM (inactive) in the assay on HOP-92; 2.82 µM (inactive) with IGROV-1; 17.7 µM (inactive) in the assay with KM12; 17.3 µM (inactive) in the assay with MDA-MB-231; 20 µM (inactive) in the assay with MDA-MB-435. In addition, the GI50 with MOLT-4 is 1.93 µM (inactive); in the assay on NCI/ADR-RES, 23.3 µM (inactive); in the assay on OVCAR-4, 19.3 µM (inactive); in the assay on OVCAR-5 it was 21 µM (inactive); with SF-268 it was 23.8 µM (inactive); with SF-295 it was 21.9 µM (inactive). Besides, the GI50 is 17.7 µM (inactive) in the assay with SN12C and 1.61 µM (inactive) in the assay on UO-31.
For the compound `ClC1=C(Cl)C2OC3C=CCC3OC2C(Cl)=C1Cl` (configuration not stated), the GI50 was > 100 µM (inactive) in the assay with A498; > 100 µM (inactive) with DU-145; 29.4 µM (inactive) with HCC 2998; 32.9 µM (inactive) in the assay on HCT-116; 36.1 µM (inactive) with HL-60; > 100 µM (inactive) in the assay with HOP-62. Moreover, the GI50 was 28.8 µM (inactive) in the assay on HOP-92; > 100 µM (inactive) in the assay on IGROV-1; 40.6 µM (inactive) with KM12; > 100 µM (inactive) with MDA-MB-231; 56.9 µM (inactive) in the assay with MDA-MB-435; 35.3 µM (inactive) in the assay on MOLT-4. Besides, the GI50 with NCI/ADR-RES is 53.6 µM (inactive); in the assay with OVCAR-4, > 100 µM (inactive); in the assay with OVCAR-5, > 100 µM (inactive); in the assay with SF-268 it was 73.5 µM (inactive); with SF-295 it was > 100 µM (inactive); in the assay on UO-31, > 100 µM (inactive).
For `COc1cccc2c(=O)c3c(O)c4cc(N(C)C)ccc4c(OC(C)=O)c3oc12`, the GI50 with A498 is 21 µM (inactive); in the assay with A549 it was 26.1 µM (inactive); in the assay on DU-145, 17.8 µM (inactive); with HCC 2998, 15 µM (inactive); in the assay on HCT-116, 13.9 µM (inactive); with HL-60 it was 3.96 µM (inactive). For the same compound, the GI50 was 15 µM (inactive) with HOP-62; 17.4 µM (inactive) in the assay with HOP-92; 13 µM (inactive) in the assay on KM12; 11.4 µM (inactive) in the assay on MDA-MB-231; 12.6 µM (inactive) in the assay on MDA-MB-435; 3.1 µM (inactive) in the assay with MOLT-4. For the same compound, the GI50 in the assay on NCI/ADR-RES was 21.7 µM (inactive); in the assay with OVCAR-4, 13.5 µM (inactive); with OVCAR-5 it was 38.9 µM (inactive); with SF-268, 17 µM (inactive); with SF-295 it was 25.1 µM (inactive); in the assay with SN12C, 12.9 µM (inactive). Moreover, the GI50 in the assay on UO-31 is 17.7 µM (inactive).
As to `Cc1cccc(CP(Cc2cccc(C)c2)CC2(Cp3c4ccccc4c4ccccc43)COC2)c1`, the GI50 with A498 was 7.41 µM (inactive); in the assay on A549, 0.206 µM (active); in the assay with DU-145, 4.71 µM (inactive); with HCC 2998, 12.3 µM (inactive); with HCT-116, 0.252 µM (active); with HL-60, 0.332 µM (active). The GI50 in the assay with HOP-62 was 66.7 µM (inactive); in the assay with HOP-92 it was 1.99 µM (inactive); with IGROV-1, 2.3 µM (inactive); in the assay on KM12, 2.51 µM (inactive); with MDA-MB-231, 1.3 µM (inactive); with MDA-MB-435, 5.71 µM (inactive). Besides, the GI50 in the assay on MOLT-4 is 0.662 µM (active); in the assay with NCI/ADR-RES, 53.7 µM (inactive); with OVCAR-4, 13.3 µM (inactive); in the assay on OVCAR-5, > 100 µM (inactive); with SF-268 it was 3.79 µM (inactive); in the assay on SF-295, 2.18 µM (inactive). Moreover, the GI50 was 4.41 µM (inactive) in the assay on SN12C and 16.3 µM (inactive) in the assay with UO-31.
Consider `NC1=C(Cl)C(=O)c2c(O)ccc(O)c2C1=O`, for which the GI50 with A498 is 14.1 µM (inactive); in the assay on A549, 2.2 µM (inactive); with DU-145, 2.2 µM (inactive); in the assay on HCC 2998 it was 2.84 µM (inactive); with HCT-116 it was 2.47 µM (inactive); with HL-60, 2.55 µM (inactive). The GI50 in the assay on HOP-62 is 5.36 µM (inactive); in the assay with HOP-92, 12.1 µM (inactive); in the assay on IGROV-1 it was 5.83 µM (inactive); with KM12, 2.92 µM (inactive); with MDA-MB-231, 5.73 µM (inactive); in the assay with MDA-MB-435, 2.01 µM (inactive). For the same compound, the GI50 is 6.98 µM (inactive) in the assay on MOLT-4; 3.61 µM (inactive) in the assay with NCI/ADR-RES; 4.11 µM (inactive) in the assay with OVCAR-4; 5.85 µM (inactive) in the assay with OVCAR-5; 3.83 µM (inactive) in the assay on SF-268; 2.1 µM (inactive) with SF-295. Besides, the GI50 with SN12C was 3.28 µM (inactive); with UO-31, 9.06 µM (inactive).
On to `NC(=O)c1cc2ccccc2o/c1=N/c1ccccc1`, for which the GI50 with A498, in the assay on A549, in the assay on DU-145, in the assay on HCC 2998, in the assay on HCT-116 and with HL-60 was > 100 µM (inactive) throughout. In addition, the GI50 with HOP-62, in the assay on HOP-92, with IGROV-1, in the assay with KM12, in the assay on MDA-MB-231 and in the assay on MDA-MB-435 was > 100 µM (inactive) throughout. In addition, the GI50 in the assay on MOLT-4, with NCI/ADR-RES, in the assay on OVCAR-4, with OVCAR-5, in the assay with SF-268 and with SN12C was > 100 µM (inactive) in each case.
